Experimental data published in patent US6432969B1, “N-(substituted glycyl)-2 cyanopyrrolidines, pharmaceutical compositions containing them and their use in inhibiting dipeptidyl peptidase-IV” (Novartis AG, priority 2000, dated 2002).
Structures can show the parent of a compound that is named as a salt.

melting point [°C]	Structure (SMILES)
270 to 273	N#C[C@@H]1CCCN1C(=O)CNC1CCC(Nc2ccc(C(F)(F)F)cn2)CC1 (stereo partly drawn) (as salt: hydrochloride)
75 to 77	N#C[C@@H]1CCCN1C(=O)CN[C@H]1CC[C@H](NS(=O)(=O)c2cccs2)CC1 (as salt: hydrochloride) [Ex. 2AA]
170 to 172	CC(C)(CNc1ccc(C(F)(F)F)cn1)NCC(=O)N1CCC[C@H]1C#N (as salt: hydrochloride) [Ex. 2B, 1-[[[2-[(5-trifluoromethyl-2-pyridinyl)amino]-1,1-dimethylethyl]amino]acetyl]-2-cyano-(S)-pyrrolidine]
198 to 200	CC(C)(Cc1ccc(F)cc1)NCC(=O)N1CCC[C@H]1C#N (as salt: hydrochloride) [Ex. 2BB]
212 to 214	CC(C)(Cc1ccccc1)NCC(=O)N1CCC[C@H]1C#N (as salt: hydrochloride) [Ex. 2CC, 1-[[(1,1-dimethyl-2-phenylethyl)amino]acetyl]-2-cyano-(S)-pyrrolidine]
144 to 146	CC(C)(CNc1ncccc1Cl)NCC(=O)N1CCC[C@H]1C#N (as salt: hydrochloride) [Ex. 2D, 1-[[[2-[(3-chloro-2-pyridinyl)amino]-1,1-dimethylethyl]amino]acetyl]-2-cyano-(S)-pyrrolidine]
99 to 102	CCCCCC12CCC(NCC(=O)N3CCC[C@H]3C#N)(CC1)CC2 (as salt: hydrochloride) [Ex. 2DD, 1-[[(4-pentylbicyclo[2.2.2]oct-1-yl)amino]acetyl]-2-cyano-(S)-pyrrolidine]
108 to 110	CC(C)(CNc1ncc(Cl)cc1Cl)NCC(=O)N1CCC[C@H]1C#N (as salt: hydrochloride) [Ex. 2F, 1-[[[2-[(3,5-dichloro-2-pyridinyl)amino]-1,1-dimethylethyl]amino]acetyl]-2-cyano-(S)-pyrrolidine]
232 to 235	N#CC1CCCN1C(=O)CNC1CCC(Oc2ccc(Cl)cc2)CC1 (as salt: hydrochloride) [Ex. 2FF, 1-[[4-[4-chlorophenoxy)cyclohexyl]amino]acetyl]-2-cyano-(S)-pyrrolidine]
112 to 114	CC(C)(CNc1ncccc1C(F)(F)F)NCC(=O)N1CCC[C@H]1C#N (as salt: hydrochloride) [Ex. 2G, 1-[[[2-[(3-trifluoromethyl-2-pyridinyl)amino]-1,1-dimethylethyl]amino]acetyl]-2-cyano-(S)-pyrrolidine]
120 to 122	N#C[C@@H]1CCCN1C(=O)CN[C@H]1CC[C@H](Oc2cccc(C(F)(F)F)c2)CC1 (as salt: hydrochloride) [Ex. 2GG, 1-[[[4-[(3-trifluoromethyl)phenoxy]cyclohexyl]amino]acetyl]-2-cyano-(S)-pyrrolidine]
225 to 227	CC(C)(CNC(=O)C(C)(C)C)NCC(=O)N1CCC[C@H]1C#N (as salt: hydrochloride) [Ex. 2H, 1-[[[2-[(2,2-dimethyl-1-oxopropyl)amino]-1,1-dimethylethyl]amino]acetyl]-2-cyano-(S)-pyrrolidine]
72 to 74	N#C[C@@H]1CCCN1C(=O)CN[C@H]1CC[C@H](Oc2cccc(Cl)c2)CC1 (as salt: hydrochloride) [Ex. 2HH]
121 to 123	CC(C)(CNC(=O)c1ccc(Cl)cc1)NCC(=O)N1CCC[C@H]1C#N (as salt: hydrochloride) [Ex. 2I, 1-[[[2-[(4-chlorobenzoyl)amino]-1,1-dimethylethyl]amino]acetyl]-2-cyano-(S)-pyrrolidine]
172 to 174	N#C[C@@H]1CCCN1C(=O)CNC1CCN(C(=O)Nc2ccc(Cl)cc2)CC1 (as salt: hydrochloride) [Ex. 2II, 1-[[[1-[[(4-chlorophenyl)amino]carbonyl]-4-piperidinyl]amino]acetyl]-2-cyano-(S)-pyrrolidine]
